Values quoted from earlier work, collected in US20080004295A1, “NOVEL COMPOUNDS” (priority 2005, published 2008).

How the values were obtained:
[1] = phase II clinical trial, allergic rhinitis
[2] = system: PGD2; settings: dosed intranasally, phase I/II study, allergic rhinitis

## Oc1cccc(Nc2ncc(F)c(Nc3cccc(O)c3)n2)c1 [Example R112]
[1]
  efficacy versus placebo: lack of efficacy
[2]
  change in PGD2: statistically significant decrease
  safety across a range of indicators: safe
